Tests used:
human orexin-2 receptor = human orexin-2 receptor (Homo sapiens (Human), UniProt O43614); experiment: In vitro assay: intracellular calcium measurements (FLIPR), antagonistic activity; format: cell-based; conditions: CHO cells, 3 nM orexin-A, compound incubation 120 min; marked values are geometric means of n = 2-6; read-out: IC50 OX2
human orexin-1 receptor = human orexin-1 receptor (Homo sapiens (Human), UniProt O43613); experiment: as above; format: cell-based; conditions: CHO cells, 3 nM orexin-A, compound incubation 120 min; marked values are geometric means of n = 2-6; read-out: IC50 OX1
human orexin-1 receptor, sequence (O43613 whole entry): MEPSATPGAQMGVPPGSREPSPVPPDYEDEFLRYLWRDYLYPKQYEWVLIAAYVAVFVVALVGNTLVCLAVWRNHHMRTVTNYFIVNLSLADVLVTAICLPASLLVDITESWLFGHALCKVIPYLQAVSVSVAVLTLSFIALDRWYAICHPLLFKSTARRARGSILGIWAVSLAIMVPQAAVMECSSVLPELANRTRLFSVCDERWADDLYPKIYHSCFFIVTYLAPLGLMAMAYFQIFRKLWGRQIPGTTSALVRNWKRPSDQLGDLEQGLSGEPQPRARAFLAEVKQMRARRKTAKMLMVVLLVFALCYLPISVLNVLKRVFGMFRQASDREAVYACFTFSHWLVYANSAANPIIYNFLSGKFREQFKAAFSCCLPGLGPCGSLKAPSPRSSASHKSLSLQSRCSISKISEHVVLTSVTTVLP

human orexin-2 receptor, sequence (O43614 whole entry): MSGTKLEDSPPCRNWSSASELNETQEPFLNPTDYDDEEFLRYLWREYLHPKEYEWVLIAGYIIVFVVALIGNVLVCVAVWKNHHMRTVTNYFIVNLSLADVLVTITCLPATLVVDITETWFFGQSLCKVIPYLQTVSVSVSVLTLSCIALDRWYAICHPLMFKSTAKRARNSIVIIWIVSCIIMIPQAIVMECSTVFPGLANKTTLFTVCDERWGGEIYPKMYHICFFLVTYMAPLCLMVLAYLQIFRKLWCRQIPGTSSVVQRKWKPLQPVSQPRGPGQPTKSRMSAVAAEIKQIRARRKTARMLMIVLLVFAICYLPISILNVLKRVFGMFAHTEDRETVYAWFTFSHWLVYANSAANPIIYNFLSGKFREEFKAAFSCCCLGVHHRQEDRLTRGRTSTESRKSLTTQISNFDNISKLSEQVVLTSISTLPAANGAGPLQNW

SMILES	IC50 (human orexin-2 receptor) [nM]	IC50 (human orexin-1 receptor) [nM]
COc1cccc(F)c1C1CC(C)C(=O)N1Cc1cccc(-c2nc(Cl)cs2)c1 (stereo not drawn) [Example 365, 1-(3-(4-chlorothiazol-2-yl)benzyl)-5-(2-fluoro-6-methoxyphenyl)-3-methylpyrrolidin-2-one]	9	114
COc1cccc(F)c1C1CC(C)C(=O)N1Cc1ccnc(-c2nc(C)cs2)c1 (stereo not drawn) [Example 366, 5-(2-fluoro-6-methoxyphenyl)-3-methyl-1-((2-(4-methylthiazol-2-yl)pyridin-4-yl)methyl)pyrrolidin-2-one]	8	158
CCOc1cccc(F)c1C1CC(C)C(=O)N1Cc1cccc(OC(F)(F)F)c1 (stereo not drawn) [Example 371, 5-(2-ethoxy-6-fluorophenyl)-3-methyl-1-(3-(trifluoromethoxy)benzyl)pyrrolidin-2-one]	19	386
CCOc1cccc(F)c1C1CC(C)C(=O)N1Cc1ccc(OC(F)(F)F)c(F)c1 (stereo not drawn) [Example 372, 5-(2-ethoxy-6-fluorophenyl)-1-(3-fluoro-4-(trifluoromethoxy)benzyl)-3-methylpyrrolidin-2-one]	115	1490
CCOc1cccc(F)c1C1CC(C)C(=O)N1Cc1cccc(OC(F)F)c1 (stereo not drawn) [Example 374, 1-(3-(difluoromethoxy)benzyl)-5-(2-ethoxy-6-fluorophenyl)-3-methylpyrrolidin-2-one]	41	976
CCOc1cccc(F)c1C1CC(C)C(=O)N1Cc1ccc(OC(F)F)c(Cl)c1 (stereo not drawn) [Example 375, 1-(3-chloro-4-(difluoromethoxy)benzyl)-5-(2-ethoxy-6-fluorophenyl)-3-methylpyrrolidin-2-one]	65	715
CCOc1cccc(F)c1C1CC(C)C(=O)N1Cc1cnc2ccccc2c1 (stereo not drawn) [Example 378, 5-(2-ethoxy-6-fluorophenyl)-3-methyl-1-(quinolin-3-ylmethyl)pyrrolidin-2-one]	690	1640
CCOc1cccc(F)c1C1CC(C)C(=O)N1Cc1ccc2ccccc2n1 (stereo not drawn) [Example 379, 5-(2-ethoxy-6-fluorophenyl)-3-methyl-1-(quinolin-2-ylmethyl)pyrrolidin-2-one]	71	1000
CCOc1cccc(F)c1C1CC(C)C(=O)N1Cc1ccnc(-c2ncc(C)s2)c1 (stereo not drawn) [Example 380, 5-(2-ethoxy-6-fluorophenyl)-3-methyl-1-((2-(5-methylthiazol-2-yl)pyridin-4-yl)methyl)pyrrolidin-2-one]	2	131
CCOc1cccc(F)c1C1CC(C)C(=O)N1Cc1ccnc(-n2cccn2)c1 (stereo not drawn) [Example 381, 1-((2-(1H-pyrazol-1-yl)pyridin-4-yl)methyl)-5-(2-ethoxy-6-fluorophenyl)-3-methylpyrrolidin-2-one]	9	418
CCOc1cccc(F)c1C1CC(C)C(=O)N1Cc1ccc2oc3ccccc3c2c1 (stereo not drawn) [Example 382, 1-(dibenzo[b,d]furan-2-ylmethyl)-5-(2-ethoxy-6-fluorophenyl)-3-methylpyrrolidin-2-one]	2	88
CCOc1cccc(F)c1C1CC(C)C(=O)N1Cc1csc(-c2ccc(C)cc2)n1 (stereo not drawn) [Example 383, 5-(2-ethoxy-6-fluorophenyl)-3-methyl-1-((2-(p-tolyl)thiazol-4-yl)methyl)pyrrolidin-2-one]	9	234
CCOc1cccc(F)c1C1CC(C)C(=O)N1Cc1cccc(-c2ncc(C)s2)c1 (stereo not drawn) [Example 384, 5-(2-ethoxy-6-fluorophenyl)-3-methyl-1-(3-(5-methylthiazol-2-yl)benzyl)pyrrolidin-2-one]	2	111
CCOc1cccc(F)c1C1CC(C)C(=O)N1Cc1cccc(-c2nc(Cl)cs2)c1 (stereo not drawn) [Example 385, 1-(3-(4-chlorothiazol-2-yl)benzyl)-5-(2-ethoxy-6-fluorophenyl)-3-methylpyrrolidin-2-one]	2	64
CCOc1cccc(F)c1C1CC(C)C(=O)N1Cc1ccnc(-c2nc(C)cs2)c1 (stereo not drawn) [Example 386, 5-(2-ethoxy-6-fluorophenyl)-3-methyl-1-((2-(4-methylthiazol-2-yl)pyridin-4-yl)methyl)pyrrolidin-2-one]	2	39
COc1cccc(OC)c1C1CC(C)C(=O)N1Cc1ccc2c(c1)c1ccccc1n2C (stereo not drawn) [Example 387, 5-(2,6-dimethoxyphenyl)-3-methyl-1-((9-methyl-9H-carbazol-3-yl)methyl)pyrrolidin-2-one]	111	100
COc1cccc(OC)c1C1CC(C)C(=O)N1Cc1cc2ccccc2n1C (stereo not drawn) [Example 388, 5-(2,6-dimethoxyphenyl)-3-methyl-1-((1-methyl-1H-indol-2-yl)methyl)pyrrolidin-2-one]	132	83
COc1cccc(OC)c1C1CC(C)C(=O)N1Cc1cc2cc(F)ccc2n1C (stereo not drawn) [Example 390, 5-(2,6-dimethoxyphenyl)-1-((5-fluoro-1-methyl-1H-indol-2-yl)methyl)-3-methylpyrrolidin-2-one]	142	80

SMILES	IC50 (human orexin-2 receptor) [nM]	IC50 (human orexin-1 receptor) [nM]
COc1cccc(OC)c1C1CC(C)C(=O)N1Cc1ccc2c(ccn2C)c1 (stereo not drawn) [Example 391, 5-(2,6-dimethoxyphenyl)-3-methyl-1-((1-methyl-1H-indol-5-yl)methyl)pyrrolidin-2-one]	529	175
COc1cccc(OC)c1C1CC(C)C(=O)N1Cc1ccc2[nH]ccc2c1 (stereo not drawn) [Example 392, 1-((1H-indol-5-yl)methyl)-5-(2,6-dimethoxyphenyl)-3-methylpyrrolidin-2-one]	1780	810
COc1cccc(OC)c1C1CC(C)C(=O)N1Cc1ccc2sc(C)nc2c1 (stereo not drawn) [Example 393, 5-(2,6-dimethoxyphenyl)-3-methyl-1-((2-methylbenzo[d]thiazol-5-yl)methyl)pyrrolidin-2-one]	121	32
COc1cccc(OC)c1C1CC(C)C(=O)N1Cc1ccc(OC(C)C)cc1 (stereo not drawn) [Example 397, 5-(2,6-dimethoxyphenyl)-1-(4-isopropoxybenzyl)-3-methylpyrrolidin-2-one]	370	265
COc1cccc(OC)c1C1CC(C)C(=O)N1Cc1ccc(SC(F)(F)F)cc1 (stereo not drawn) [Example 398, 5-(2,6-dimethoxyphenyl)-3-methyl-1-(4-((trifluoromethyl)thio)benzyl)pyrrolidin-2-one]	428	277
COc1cccc(OC)c1C1CC(C)C(=O)N1Cc1ccc(OC(F)(F)C(F)F)cc1 (stereo not drawn) [Example 399, 5-(2,6-dimethoxyphenyl)-3-methyl-1-(4-(1,1,2,2-tetrafluoroethoxy)benzyl)pyrrolidin-2-one]	124	172
COc1cccc(OC)c1C1CC(C)C(=O)N1Cc1ccc(OC(F)(F)F)c(F)c1 (stereo not drawn) [Example 400, 5-(2,6-dimethoxyphenyl)-1-(3-fluoro-4-(trifluoromethoxy)benzyl)-3-methylpyrrolidin-2-one]	183	151
COc1cccc(OC)c1C1CC(C)C(=O)N1Cc1ccc(OC(F)F)c(Cl)c1 (stereo not drawn) [Example 401, 1-(3-chloro-4-(difluoromethoxy)benzyl)-5-(2,6-dimethoxyphenyl)-3-methylpyrrolidin-2-one]	155	164
COc1cccc(OC)c1C1CC(C)C(=O)N1Cc1ccc(OC(F)F)cc1 (stereo not drawn) [Example 402, 1-(4-(difluoromethoxy)benzyl)-5-(2,6-dimethoxyphenyl)-3-methylpyrrolidin-2-one]	621	271
COc1ccc(OC(F)(F)F)cc1CN1C(=O)C(C)CC1c1c(OC)cccc1OC (stereo not drawn) [Example 403, 5-(2,6-dimethoxyphenyl)-1-(2-methoxy-5-(trifluoromethoxy)benzyl)-3-methylpyrrolidin-2-one]	449	532
COc1ccc(CN2C(=O)C(C)CC2c2c(OC)cccc2OC)cc1OC(F)(F)F (stereo not drawn) [Example 404, 5-(2,6-dimethoxyphenyl)-1-(4-methoxy-3-(trifluoromethoxy)benzyl)-3-methylpyrrolidin-2-one]	513	965
COc1cccc(OC)c1C1CC(C)C(=O)N1Cc1ccccc1OC(F)(F)F (stereo not drawn) [Example 405, 5-(2,6-dimethoxyphenyl)-3-methyl-1-(2-(trifluoromethoxy)benzyl)pyrrolidin-2-one]	87	555
COc1cccc(F)c1C1CC(F)(F)C(=O)N1Cc1ccc2oc3ccccc3c2c1 (stereo not drawn) [Example 410, 1-(dibenzo[b,d]furan-2-ylmethyl)-3,3-difluoro-5-(2-fluoro-6-methoxyphenyl)pyrrolidin-2-one]	12	143
CC(C)Oc1cccc(F)c1C1CC(F)(F)C(=O)N1Cc1ccc(OC(F)(F)F)cc1 (stereo not drawn) [Example 411, 3,3-difluoro-5-(2-fluoro-6-isopropoxyphenyl)-1-(4-(trifluoromethoxy)benzyl)pyrrolidin-2-one]	98	1490
CC(C)Oc1cccc(F)c1C1CC(C)C(=O)N1Cc1ccc(OC(F)(F)F)cc1 (stereo not drawn) [Example 413, 5-(2-fluoro-6-isopropoxyphenyl)-3-methyl-1-(4-(trifluoromethoxy)benzyl)pyrrolidin-2-one]	68	1500
CC1CC(c2c(F)cccc2OCCF)N(Cc2ccc(OC(F)(F)F)cc2)C1=O (stereo not drawn) [Example 414, 5-(2-fluoro-6-(2-fluoroethoxy)phenyl)-3-methyl-1-(4-(trifluoromethoxy)benzyl)pyrrolidin-2-one]	44	1500
CC1CC(c2c(F)cccc2OCCO)N(Cc2ccc(OC(F)(F)F)cc2)C1=O (stereo not drawn) [Example 416, 5-(2-fluoro-6-(2-hydroxyethoxy)phenyl)-3-meetthyl-1-(4-(trifluoromethoxy)benzyl)pyrrolidin-2-one]	59	2940
COc1cccc(OC)c1C1CC(C)C(=O)N1Cc1cccc(OCC(F)(F)F)c1 (stereo not drawn) [Example 417, 5-(2,6-dimethoxyphenyl)-3-methyl-1-(3-(2,2,2-trifluoroethoxy)benzyl)pyrrolidin-2-one]	110	123

— US9242970B2 (ACTELION PHARMACEUTICALS LTD., priority 2010, dated 2016)
